{
  "source": "patent US20060258601A1",
  "about": "“Formulation for inwardly transferring nucleic acids into eucaryotic cells” (priority 2002, published 2006)",
  "format_in_all_cases": "cell-based",
  "key": {"[1]": {"system": "human cultivated endothelial cells", "test": "Absorption of FITC-marked decoy oligonucleotide, fluorescence microscopy", "details": "for effect of transport inhibitors on accumulation/absorption of decoy oligonucleotides: human endothelial cells, methotrexate by comparison with folic acid; for concentration of the nucleic acids in the cell on co-incubation with nonsteroidal anti-inflammatory drug: 100 μmol/l co-incubation, 1 hour (FIG. 6)", "procedure": "Human endothelial cells were isolated from umbilical veins by treatment with 1.6 U/ml dispase in Hepes-modified tyrode solution for 30 minutes at 37° C. and cultivated on gelatine-coated 6-well tissue-culture dishes (2 mg/ml gelatine in 0.1 M HCl for 30 minutes at room temperature) in 1.5 ml M199 medium (Gibco Life Technologies, Karlsruhe, Germany), containing 20% foetal calf serum, 50 U/ml penicillin, 50 μg/ml streptomycin, 10 U/ml nystatin, 5 mM HEPES and 5 mM TES, 1 μg/ml heparin and 40 μg/ml endothelial growth factor. […] Before the start of the experiment, the endothelial cells cultivated in the 24-well cell-culture plates were washed once with Ringer's solution at 37° C. (composition: 145 mmol/l Na^+, 5 mmol/l K^+, 156 mmol/l Cl^−, 2 mmol/l Ca^2+, 1 mmol/l Mg^2+, 10 mmol/l Hepes, 10 mmol/l D-glucose, pH 7.35). […] After an incubation period of up to 180 min at 37° C. and in ambient air, the cells were washed three times with 1 ml warm, non-modified Ringer's solution. The fluorescence intensities were recorded with the MicroMax CCD-camera (Princeton Instruments Inc., Trenton, N.J., USA), which was coupled to an Axiovert S100 TV microscope (Zeiss, Göttingen, Germany), with an excitation wavelength of 494 nm, an emission wavelength of 518 nm and 200× magnification. The fluorescence images (one image was taken for each portion of the experimental mixture) and the subsequent quantification was implemented using the MetaMorph V3.0 Software (Universal Imaging West Chester, Pa., USA). For the quantification, all fluorescence images for an experimental mixture were initially calibrated to an identical level of brightness and contrast. Following this, the software was used to determine an overall brightness integrated across the individual pixels for each image as a measure for the fluorescence intensity, thereby representing the intracellular concentration of the decoy oligonucleotide."}, "caveolin-1": {"system": "caveolin-1", "test": "Western-blot analysis of caveolin-1 protein expression after antisense oligonucleotide treatment", "details": "human cultivated endothelial cells; antisense 0.5 μmol/l with lipofectin; n=3", "procedure": "(§1) For an antisense mixture, 3% lipofectin (v/v) (Gibco Life Technologies) was added to 1 ml culture medium and incubated for 60 minutes at room temperature (RT). Following this, the corresponding antisense or control oligonucleotide (Eurogentec, Köln, Germany) was added in a final concentration of 0.5 μmol/l and incubated for a further 30 minutes at room temperature. At the start of the experiments, the corresponding quantities of heparin and endothelial growth factor were added, and the conventional cell culture medium of the endothelial cell culture was replaced by the antisense lipofectin medium. After 6 hours, the antisense lipofectin medium was removed and replaced by fresh cell culture medium; the Western-blot analysis and/or the fluorescence-microscopic analysis of the decoy-oligonucleotide absorption was carried out 24 hours after the transfection. […]\n(§2) The human umbilical vein endothelial cells were opened by freezing successively five times in liquid nitrogen and thawing at 37° C. […] CD40 protein was detected with a polyclonal anti-human antibody (Research Diagnostics Inc., Flanders, N.J., USA). […]"}, "[2]": {"system": "reduced folic-acid-carrier", "test": "Western-blot analysis of reduced folic-acid-carrier protein expression after antisense oligonucleotide treatment", "details": "human cultivated endothelial cells; antisense 0.5 μmol/l with lipofectin; n=5", "procedure": "as §1, §2"}, "[3]": {"details": "FITC-marked C/EBP decoy 10 μmol/l"}},
  "data": [
    {"compound": "5′-A*T*G*TCCCTCCGAGT*C*T*A-3′ [antisense oligonucleotide for caveolin-1]", "values": [
      {"measurement": "effect on absorption of the decoy oligonucleotide", "setting": "[1]; after inhibition of caveolin-1 expression, FITC-marked C/EBP decoy 10 μmol/l, 1 hour (FIG. 2)", "value": "significant restricttion"},
      {"measurement": "protein expression of caveolin-1", "setting": "caveolin-1", "value": "37±10 % of the control"}
    ]},
    {"compound": "5′-C*A*A*A*GG*T*A*GC*A*C*A*CG*A*G-3′", "values": [
      {"measurement": "inhibition of the decoy-oligonucleotide absorption", "setting": "[1]; after antisense reduction of hFRC protein, FITC-marked C/EBP decoy 10 μmol/l, 1 hour (FIG. 4)", "value": 45, "unit": "%"},
      {"measurement": "protein expression of the reduced folic-acid-carrier", "setting": "[2]", "value": "33±10 % of the control"}
    ]},
    {"compound": "O=S(=O)(O)c1cc(N=C=S)ccc1C=Cc1ccc(N=C=S)cc1S(=O)(=O)O", "note": "[DIDS, 4,4′-diisothiocyano-2,2′-stilben-disulfonic acid]", "values": [
      {"measurement": "effect of transport inhibitors on accumulation/absorption of decoy oligonucleotides", "setting": "[1]", "value": "high sensitivity"}
    ]},
    {"compound": "CC(C(=O)O)c1ccc(-c2ccccc2)c(F)c1", "note": "(stereo not drawn) [flurbiprofen]", "values": [
      {"measurement": "concentration of the nucleic acids in the cell on co-incubation with nonsteroidal anti-inflammatory drug", "setting": "[1]; [3]", "value": "significantly increased"}
    ]},
    {"compound": "CC(C(=O)O)c1ccc(N2Cc3ccccc3C2=O)cc1", "note": "(stereo not drawn) [indoprofen]", "values": [
      {"measurement": "concentration of the nucleic acids in the cell on co-incubation with nonsteroidal anti-inflammatory drug", "setting": "[1]; [3]", "value": "significantly increased"}
    ]},
    {"compound": "CN(Cc1cnc2nc(N)nc(N)c2n1)c1ccc(C(=O)N[C@@H](CCC(=O)O)C(=O)O)cc1", "note": "[methotrexate]", "values": [
      {"measurement": "effect of transport inhibitors on accumulation/absorption of decoy oligonucleotides", "setting": "[1]", "value": "considerably improved inhibition"}
    ]},
    {"compound": "CCCN(CCC)S(=O)(=O)c1ccc(C(=O)O)cc1", "note": "[probenicid]", "values": [
      {"measurement": "effect of transport inhibitors on accumulation/absorption of decoy oligonucleotides", "setting": "[1]", "value": "probenicid-sensitive"}
    ]}
  ]
}
